Reference: patent publication US20140342025A1, “ARJUNOLIC ACID FOR INCREASING SEBUM PRODUCTION” (EVONIK INDUSTRIES AG, priority 2011, published 2014)

Test: Percutaneous absorption study on a pig skin model
Assay type: in vitro ADME
Conditions: arjunolic acid in combination with 1,2-pentanediol in cosmetic formulation vs. formulation without 1,2-pentanediol; FIG. 2
Description: In practice, the study was performed in accordance with a current protocol, as described for example in S. Richert, A. Schrader, K. Schrader, Int. J. Cosmet. Sci. 2003, 25, 5-13.

CC1(C)CC[C@]2(C(=O)O)CC[C@]3(C)C(=CC[C@@H]4[C@@]5(C)C[C@@H](O)[C@H](O)[C@@](C)(CO)[C@@H]5CC[C@]43C)[C@@H]2C1 [arjunolic acid]
bioavailability (skin penetration) as a function of solvent: increase in bioavailability
